Measured values taken from patent US20030017976A1, “Therapeutic properties of liposome-encapsulated immunomodulators” (priority 1998, published 2003).

Experiments:
[1] = test system: peritoneal exudate macrophages (PEM); assay: Nitrite (NO) production by mouse peritoneal exudate macrophages; format: cell-based; settings: PEM with 50 umol/well MLV (0.1 mg JBT3002/300 μM phospholipid) in the presence of 2 mM NMA
Protocol: Peritoneal exudate macrophages (PEM) were collected by peritoneal lavage from mice given an intraperitoneal injection of 2.0 ml of thioglycollate broth (Baltimore Biological Laboratory, Cockeysville, Md.) 4 days before harvest (Dong Z, O'Brian C A, et al. J Leukoc Biol (1993) 53:53-60; Xie K, Huang S, et al. Cancer Res (1995) 55:3123-31). The PEM were washed in Ca^+2- an Mg^2+-free HBSS and resuspended in serum-free medium: 1×10^5 cells were plated into each 38-mm^2 well of 96-2311 culture plates (Falcon Plastics, Oxnard, Calif.). After a 90-min incubation, the nonadherent cells were removed by washing with medium. More than 98% of the adherent cell populations were macrophages according to morphology and phagocytic criteria (Saiki I, et al. J Immunol (1985) 135:684-8). […] After treatment, the cultures were washed and macrophage-mediated cytotoxicity against different tumor targets was determined. […]
Nitrite accumulation in the culture supernatant was measured in a colorimetric assay as described previously (Ding A E, et al. J Immunol (1988) 141:2407-12). […] The mixtures were incubated 10 min with shaking, and A540 was measured with the use of a microplate reader (Model 3550; Bio-Rad Corp., San Francisco, Calif.). The concentration of nitrite was determined by comparing it with a standard solution of sodium nitrite in medium.

tumor cells = assay: Macrophage-mediated tumor cytotoxicity, target cells not named; format: cell-based; settings: PEM with 50 umol/well MLV (0.1 mg JBT3002/300 μM phospholipid) in the presence of 2 mM NMA
Protocol: Cytotoxicity was assayed by measuring release of radioactivity from target cell DNA as described previously (Dong Z, et al. J Exp Med (1993) 177:1071-7). Briefly, tumor target cells in their exponential growth phase were incubated in medium containing 0.25 μCi/ml of [^3H]TdR (sp. Act. 2 Ci/mmol) (ICN Biomedicals, Inc., Irvine, Calif.) for 24 h. The cells were washed three times with HBSS to remove unbound radioactivity and then harvested by trypsinization (0.25% trypsin in 0.02% EDTA), washed, and resuspended in medium. Cells were plated (at 1×10^4/well) into wells containing control or test macrophages to achieve an E/T cell ratio of 10:1. At this density, macrophages incubated in medium (control) were not cytotoxic to neoplastic cells (Weinstein SL, et al. Proc Natl Acad Sci USA (1991) 88:4148-52; Dong Z, et al. JLeukoc Biol (1993) 53:53-60). […] The lysate was harvested with harvester 96 (Tomtec, Orange, Conn.) and counted for residual radioactivity in a liquid scintillation counter. Macrophage-mediated cytotoxicity was calculated as follows: […]
Efficient activation of macrophages by LPS requires priming by IFN-γ (Saiki I, et al. J Immunol (1985) 135:684-8). […] Tumor cytotoxicity was measured 72 h after the addition of radiolabeled tumor cells to the activated macrophages. […]

[2] = test system: PEM (TNF-α, IL-1α, IL-6, NO); assay: Cytokine and nitrite production by PEM (ELISA, Griess); format: cell-based, mouse; settings: PEM treated with LPS or MLV-JBT3002, genistein 100 μM, PD-98059 10 μM, calphostin-C 250 nM
Protocol: Peritoneal exudate macrophages (PEM) were collected by peritoneal lavage from mice given an intraperitoneal injection of 1.5 ml of thioglycollate broth (Baltimore Biological Laboratory, Cockeysville, Md.) 4 days before harvest.(Saiki I, et al. J Immunol (1985) 135:684 688; Dong Z, et a.l J Leukoc Biol (1993) 53:53-60; Dong Z, J et al. J Exp Med (1993) 177:1071-1077) The PEM were washed in CA^2+- and MG^2+-free HBSS and resuspended in serum-free medium: 1×10^5 cells were plated into each 38-mm^2 well of 96-well culture plates (Falcon Plastics, Oxnard, Calif.). After a 90-minute incubation, the nonadherent cells were removed by washing them with medium. More than 98% of the adherent cell populations were macrophages according to morphology and phagocytic criteria. (Saiki I, et al. J Immunol (1985) 135:684 688)
PEM in 96-well plates at a density of 10^5 cells/well/200 μl of medium were treated as indicated in Results. The culture supernatants were harvested and used immediately for the cytokine assays or stored at −70° C. For cell lysates, supernatants were removed and macrophages were frozen-thawed in fresh medium. Specific cytokines in the supernatants or cell lysates (diluted at 1:5 or 1:10) were measured by ELISA kits according to manufacturer's instructions.
The nitrite concentration in culture supernatants was determined by a microplate assay as described previously. Briefly, 50-μl samples harvested from PEM-conditioned medium were treated with an equal volume of Griess reagent (1% sulfanilamide, 0.1% naphthylene diamine dihydrochloride, and 2.5% H3PO4) at room temperature for 10 minutes. The absorbance at 540 nm was monitored with a microplate reader. The nitrite concentration was determined using sodium nitrite as a standard.

K-1735 M2 cells = assay: Macrophage-mediated cytotoxicity against K-1735 M2 cells; format: cell-based, mouse; settings: PEM activated by JBT3002

SMILES | NO [1] [µM] | tumor cytotoxicity (tumor cells) [%] | effect of kinase inhibitor on production of NO [2] | effect of kinase inhibitor on production of TNF-α ([2]; H-89) | minimal inhibition dose (K-1735 M2 cells) [µM]
CNC(=N)NCCC[C@H](N)C(=O)O [NMA, N^G-monomethyl-L-arginine] | 1.6 | 1.3 | – | – | –
O=c1c(-c2ccc(O)cc2)coc2cc(O)cc(O)c12 [genistein, Genistein] | – | – | significantly inhibited | significantly inhibited | 30 to 40
